± gives the expanded uncertainty stated by the source.
How the values were obtained:
[1] = xn = mol fraction of the nth substance listed; details: 100 kPa, Liquid, x1 = 1; for viscosity: Falling or rolling sphere viscometry; for mass density: Vibrating tube method
[2] = 100 kPa, Liquid; for viscosity: Falling or rolling sphere viscometry; for mass density: Vibrating tube method

| Structure (SMILES) | viscosity ([1]; 293.15 K) | mass density ([1]; 293.15 K) | viscosity ([1]; 298.15 K) | mass density ([1]; 298.15 K) | viscosity ([1]; 303.15 K) | mass density ([1]; 303.15 K) | viscosity ([1]; 308.15 K) | mass density ([1]; 308.15 K) | viscosity ([1]; 313.15 K) | mass density ([1]; 313.15 K) | viscosity ([2]; 293.15 K) | mass density ([2]; 293.15 K) | viscosity ([2]; 298.15 K) | mass density ([2]; 298.15 K) | viscosity ([2]; 303.15 K) | mass density ([2]; 303.15 K) | viscosity ([2]; 308.15 K) | mass density ([2]; 308.15 K) | viscosity ([2]; 313.15 K) | mass density ([2]; 313.15 K) |
| --- | --- | --- | --- | --- | --- | --- | --- | --- | --- | --- | --- | --- | --- | --- | --- | --- | --- | --- | --- | --- |
| CC(C)CO [2-methyl-1-propanol] + NC1CCCCC1 | 4.023 ± 0.069 mPa·s | 801.96 ± 2 kg/m3 | 3.404 ± 0.067 mPa·s | 798.12 ± 2 kg/m3 | 2.882 ± 0.065 mPa·s | 794.22 ± 2 kg/m3 | 2.475 ± 0.064 mPa·s | 790.27 ± 2 kg/m3 | 2.097 ± 0.063 mPa·s | 786.27 ± 2 kg/m3 |  |  |  |  |  |  |  |  |  |  |
| CC(C)CO [2-methyl-1-propanol] |  |  |  |  |  |  |  |  |  |  | 4.023 ± 0.069 mPa·s | 801.96 ± 2 kg/m3 | 3.404 ± 0.067 mPa·s | 798.12 ± 2 kg/m3 | 2.882 ± 0.065 mPa·s | 794.22 ± 2 kg/m3 | 2.475 ± 0.064 mPa·s | 790.27 ± 2 kg/m3 | 2.097 ± 0.063 mPa·s | 786.27 ± 2 kg/m3 |
| NC1CCCCC1 [cyclohexylamine] |  |  |  |  |  |  |  |  |  |  | 2.134 ± 0.063 mPa·s | 866.85 ± 2 kg/m3 | 1.944 ± 0.062 mPa·s | 862.31 ± 2 kg/m3 | 1.786 ± 0.062 mPa·s | 857.79 ± 2 kg/m3 | 1.572 ± 0.062 mPa·s | 853.24 ± 2 kg/m3 | 1.417 ± 0.061 mPa·s | 848.71 ± 2 kg/m3 |

From the NIST ThermoML archive (doi:10.1021/acs.jced.6b00158)
